Data on 27 compounds can be found in patent US8410056B2, “Pro-oxidant anti-cancer compounds” (priority 2006, dated 2013).

The structures appear in SMILES notation. Where a name gives a salt, the structure may show the parent alone.

The subject of data set [1] is Jurkat, HBT11, MCF7, MCF7-C3. Conditions: Birringer et al, cited from earlier work; for pro-apoptotic activity: compared with α-TOS and isomers; for IC50: Jurkat, HBT11, MCF7, MCF7-C3, 2003.
The target in data set [2] is T1, complex II/SDH-dependent activity in NeuTL cells (Mus musculus, UniProt Q8K2B3+Q9CQA3+Q9CXV1+Q9CZB0).
T1 construct: For specifically measuring complex II activity in whole cells; endogenous in cells; host or cells: NeuTL murine breast cancer cells
T1 sequence (Q8K2B3 43-664): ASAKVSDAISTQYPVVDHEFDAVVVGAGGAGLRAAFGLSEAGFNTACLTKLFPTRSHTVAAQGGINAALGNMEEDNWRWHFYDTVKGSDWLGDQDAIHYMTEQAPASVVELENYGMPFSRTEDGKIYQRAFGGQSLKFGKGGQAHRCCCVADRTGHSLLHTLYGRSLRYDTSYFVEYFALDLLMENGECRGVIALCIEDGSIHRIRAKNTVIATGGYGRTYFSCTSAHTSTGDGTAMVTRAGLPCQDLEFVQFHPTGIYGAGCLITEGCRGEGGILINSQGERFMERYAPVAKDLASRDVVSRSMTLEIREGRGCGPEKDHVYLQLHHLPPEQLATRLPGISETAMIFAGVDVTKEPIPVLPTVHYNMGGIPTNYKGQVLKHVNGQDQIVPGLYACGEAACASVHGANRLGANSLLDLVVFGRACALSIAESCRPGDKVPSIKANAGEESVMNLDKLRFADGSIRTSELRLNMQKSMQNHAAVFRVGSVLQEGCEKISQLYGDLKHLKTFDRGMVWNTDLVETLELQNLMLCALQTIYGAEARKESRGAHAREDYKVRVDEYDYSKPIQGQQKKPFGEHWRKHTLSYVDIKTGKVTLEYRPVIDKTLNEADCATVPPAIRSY
T1 sequence (Q9CQA3 31-282): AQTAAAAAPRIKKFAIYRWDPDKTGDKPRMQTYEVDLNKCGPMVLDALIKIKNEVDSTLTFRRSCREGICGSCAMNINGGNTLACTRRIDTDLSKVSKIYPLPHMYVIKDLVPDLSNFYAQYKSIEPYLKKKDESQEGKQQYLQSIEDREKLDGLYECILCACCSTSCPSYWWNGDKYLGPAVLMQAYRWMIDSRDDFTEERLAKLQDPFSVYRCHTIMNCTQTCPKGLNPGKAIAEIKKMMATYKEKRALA
T1 sequence (Q9CZB0 30-169): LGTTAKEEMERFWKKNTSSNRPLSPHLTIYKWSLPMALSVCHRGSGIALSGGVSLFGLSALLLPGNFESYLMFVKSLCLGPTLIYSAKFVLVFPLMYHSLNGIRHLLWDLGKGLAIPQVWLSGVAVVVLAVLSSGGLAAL
T1 sequence (Q9CXV1 57-159): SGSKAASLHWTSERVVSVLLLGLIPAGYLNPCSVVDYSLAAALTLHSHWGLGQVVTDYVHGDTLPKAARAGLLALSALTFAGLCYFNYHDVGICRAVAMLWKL
The data set is described as follows: MTT reduction assay of complex II/SDH activity in whole cells. The data set is classed as cell-based, murine. Conditions: absence of added succinate; 4 h. The procedure: MTT assay. MTT solutions were prepared immediately before use by dissolving 2.5 mg/ml 3-(4,5-dimethyl[…] (MTT) (Sigma) in PBS alone or phenol red-free RPMI medium containing 20 mM succinic acid, pH 7.4. Stock solutions of 3-nitropropionic acid (3NPA) in ethanol, thenoyltrifluoroacetone (TTFA) in DMSO, 3-BP in PBS, α-TOS in DMSO, and MitoQ (Alleva et al, 2003, James et al, 2005) in ethanol were prepared. The drugs were tested on NeuTL cells cultured in exponential growth phase in 96-well microtitre plates using 4-8 replicate wells per dilution assayed. To assess the ability of MitoQ to restore MTT reduction, cells were pre-incubated for 60 min with 2 or 5 μM MitoQ. Final concentrations of ethanol or DMSO in cultures were ≦0.1%. Treated and control cells were allowed to reduce MTT to blue formazan crystals for 2 or 4 h at 37° C. and 5% CO2. After incubation, culture supernatants were removed except for 30 μl, before the formazan crystals were solubilized by addition of 150 μl DMSO, and absorbance values were measured at 570 nm using a Fluorostar Optima plate reader.
To this end, the present inventors investigated whether α-TOS interferes with UbQ binding in complex II. For specifically measuring complex II activity in whole cells, a short-term (1-2 h) assay was used based on the reduction of the tetrazolium salt, MTT (Maehara et al, 1988). […] For this, oxidative respiration of murine NeuTL breast cancer cells was sustained on high levels of succinate (20 mM), thereby promoting the SDH activity of complex II (Maehara et al, 1988). The cells were then assayed within 1-2 h for their ability to enzymatically reduce MTT, which under conditions of high succinate becomes a specific indicator of complex II/SDH-dependent activity (Maehara et al, 1988, Berridge and Tan, 1993).

A further data set concerns Jurkat, U937, Meso-2. To be noted: Tomic-Vatic et al, 2005, cited from earlier work; for IC50: Jurkat, U937, Meso-2; for pro-apoptotic activity: ester bond replaced by amide bond.
The subject of the next data set is MCF7. Conditions: cited from earlier work.
The next data set deals with B16(F10). Conditions: He et al, 1997, cited from earlier work; for IC50: B16(F10).
For a further data set, the system named is mesothelioma. The data set is described as follows: Clinical study, patient with mesothelioma. The data set is classed as in vivo. Conditions: same patient. The procedure: α-TOS was used to treat mesothelioma in a human cancer patient. […] The blood plasma levels were monitored and levels of α-TOS in the plasma attained 50 μM over prolonged periods during continual application. This is more than sufficient to kill the cancer cells based on in vitro analysis.
The patient was originally receiving high dose opiate medications, neuropathic pain medications, home oxygen, and was predicted to have a life expectancy of 6-8 weeks. After treatment with α-TOS, the patient no longer required analgesia or oxygen.
In December 2005, the patient started receiving transdermal delivery of α-TOS, prepared in a base cream and solubilised with dimethyl sulfoxide (DMSO).
In April 2007, therapy with α-TOS was commenced using a modified formulation mixed in a lipodermal cream (see below). […] In addition, a palpable lesion was visible growing out between the ribs and the right anterior chest wall. The patient was in very poor condition with a low ECOG- no CT scan could be performed at the time of commencing the α-TOS treatment because the patient was too moribund.
α-TOS formulation: 500 gms of Lipoderm cream plus 60 gms α-TOS compounded by the hospital pharmacy. About 30 gms of compounded mix was administered every few days, and the upper body was wrapped in plastic film (“saran wrap”) to improve absorption.

Data set [3] has as its target T2, α-tocopherol transfer protein (α-TTP) (Rattus norvegicus, UniProt P41034).
T2 sequence (P41034 1-278): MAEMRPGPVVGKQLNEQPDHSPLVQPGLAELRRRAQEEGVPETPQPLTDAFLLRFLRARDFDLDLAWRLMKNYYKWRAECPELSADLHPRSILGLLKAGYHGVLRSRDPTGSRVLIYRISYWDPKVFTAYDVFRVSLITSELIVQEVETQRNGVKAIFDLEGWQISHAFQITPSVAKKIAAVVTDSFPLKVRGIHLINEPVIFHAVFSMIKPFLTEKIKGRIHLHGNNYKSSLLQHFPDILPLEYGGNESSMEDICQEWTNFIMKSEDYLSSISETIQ
Conditions: α-tocopherol 100%; Hosomi et al, 1997; cited from earlier work.

One may read the IC50 as the concentration that inhibits the measured activity by half. For the compound `Cc1c(C)c2c(c(C)c1OC(=O)C=CC(=O)O)CCC(C)(CCCC(C)CCCC(C)CCCC(C)C)O2` (stereo not drawn) [Compound 3, α-tocopheryl maleate], in data set [1], the “pro-apoptotic activity” value was “Even greater pro-apoptotic activity” and the IC50 is 22 µM.
`O=C(O)CC[N+](=O)[O-]` [Compound 3NPA, 3-nitropropionic acid]: the “complex II-mediated MTT reduction” value in data set [2] was “potent inhibitors of the complex II-mediated MTT reduction”.
Consider `Cc1c(C)c2c(c(C)c1OC(=O)CCCC(=O)O)CCC(C)(CCCC(C)CCCC(C)CCCC(C)C)O2` (stereo not shown) [Compound 5], for which the “pro-apoptotic activity” value in data set [1] is recorded as “decreased activity”.
As for `Cc1c(C)c2c(c(C)c1OC(=O)CC(C)CC(=O)O)CCC(C)(CCCC(C)CCCC(C)CCCC(C)C)O2` (stereo not shown) [Compound 6], the “pro-apoptotic activity” value in data set [1] is reported as “decreased activity”.
`Cc1c(C)c2c(c(C)c1OC(=O)CC(C)(C)CC(=O)O)CCC(C)(CCCC(C)CCCC(C)CCCC(C)C)O2` (stereo not shown) [Compound 7]: the “pro-apoptotic activity” value in data set [1] is “decreased activity”.
Consider `COC(=O)CCC(=O)Oc1c(C)c(C)c2c(c1C)CCC(C)(CCCC(C)CCCC(C)CCCC(C)C)O2` (stereo not shown) [Compound 9], for which the “pro-apoptotic activity” value in data set [1] is listed as “without pro-apoptotic activity”.
As for `Cc1c(C)c2c(c(C)c1NC(=O)CCC(=O)O)CCC(C)(CCCC(C)CCCC(C)CCCC(C)C)O2` (stereo not shown) [Compound 12], in the data set with Jurkat, U937, Meso-2, the IC50 is 13 µM and the “pro-apoptotic activity” value is “further enhancement of pro-apoptotic activity”.
As to `Cc1c(C)c2c(c(C)c1NC(=O)C=CC(=O)O)CCC(C)(CCCC(C)CCCC(C)CCCC(C)C)O2` (stereo not shown) [Compound 13], in the data set on Jurkat, U937, Meso-2, the IC50 is 2 µM and the “pro-apoptotic activity” value is listed as “further enhancement of pro-apoptotic activity”.
Regarding `COC(=O)CCC(=O)Nc1c(C)c(C)c2c(c1C)CCC(C)(CCCC(C)CCCC(C)CCCC(C)C)O2` (stereo not shown) [Compound 14], the IC50 in the data set on Jurkat, U937, Meso-2 is above 100 µM.
On to `Cc1c(C)c2c(c(C)c1OC(=O)C(N)CCCCN)CCC(C)(CCCC(C)CCCC(C)CCCC(C)C)O2` (stereo not shown) [Compound 16], for which, in the data set on MCF7, the 50% inhibitory concentration (IC50) is 12 µM.
In the case of `Cc1c(C)c2c(c(C)c1CC(=O)O)CCC(C)(CCCC(C)CCCC(C)CCCC(C)C)O2` (stereo not shown) [Compound 22], the “EC50 [μg/ml]” value with MCF7 (Shiau et al, 2006, footnote g) was 15-20^g μg/ml.
In the case of `Cc1cc(OC(=O)CCC(=O)O)cc2c1OC(C)(CCCC(C)CCCC(C)CCCC(C)C)CC2` (stereo not shown) [Compound 35], in data set [1], the “pro-apoptotic activity” value is on record as “least effective” and the IC50 was 66 µM.
Turning to `Cc1cc(OC(=O)C=CC(=O)O)cc2c1OC(C)(CCCC(C)CCCC(C)CCCC(C)C)CC2` (stereo not shown) [Compound 36], the IC50 in the data set on Jurkat, U937, Meso-2 is 49 µM.
`Cc1cc(NC(=O)CCC(=O)O)cc2c1OC(C)(CCCC(C)CCCC(C)CCCC(C)C)CC2` (stereo not shown) [Compound 37]: in the data set with Jurkat, U937, Meso-2, the IC50 was 20 µM and the “pro-apoptotic activity” value is “further enhancement of pro-apoptotic activity”.
With `Cc1cc(NC(=O)C=CC(=O)O)cc2c1OC(C)(CCCC(C)CCCC(C)CCCC(C)C)CC2` (stereo not shown) [Compound 38], in the data set with Jurkat, U937, Meso-2, the IC50 was 9 µM and the “pro-apoptotic activity” value is reported as “further enhancement of pro-apoptotic activity”.
For the compound `Cc1c(C)c2c(c(C)c1OC(=O)C(N)CCCCN)CCC(C)(CO)O2` (stereo not shown) [Compound 47], the IC50 in the data set on MCF7 is 194 µM.
Turning to `CCCCCOCC1(C)CCc2c(C)c(OC(=O)C(N)CCCCN)c(C)c(C)c2O1` (stereo not shown) [Compound 48], the IC50 with MCF7 was 22 µM.
Turning to `CCCCC(=O)OCC1(C)CCc2c(C)c(OC(=O)C(N)CCCCN)c(C)c(C)c2O1` (stereo not shown) [Compound 49], the IC50 with MCF7 is 15 µM.
Regarding `CC(C)=CCC/C(C)=C/CC/C(C)=C/CC[C@]1(C)CCc2cc(O)cc(C)c2O1` [Compound 59, δ-tocotrienol], in the data set with B16(F10), the IC50 is 10 µM and the “potency in the murine B16-F10 melanoma cell model” value is listed as “most potent agent”.
As for `CC(C)=CCC/C(C)=C/CC/C(C)=C/CCC1(C)CCc2cc(O)ccc2O1` (stereo not shown) [Compound 60, desmethyl tocotrienol], in the data set with B16(F10), the IC50 was 0.9 µM.
Regarding `Nc1ccn([C@@H]2O[C@H](CO)[C@@H](O)C2(F)F)c(=O)n1` [Gemcitabine, reference compound], the “toxicity of other therapies (medical history)” value with mesothelioma is listed as “unacceptable levels of toxicity”.
Still for that read-out and setting: next, `CCC1=C[C@@H]2CN(C1)Cc1c([nH]c3ccccc13)[C@@](C(=O)OC)(c1cc3c(cc1OC)N(C)[C@H]1[C@@](O)(C(=O)OC)[C@H](OC(C)=O)[C@]4(CC)C=CCN5CC[C@]31[C@@H]54)C2` [Vinorelbine, reference compound]: “severe exacerbation of peripheral neuropathy”; `Oc1ccc(C2=Cc3ccc(O)cc3OC2)cc1` [phenoxodiol, reference compound]: “ongoing severe neuropathy”.
Consider `Cc1c(C)c2c(c(C)c1O)CC[C@@](C)(CCC[C@H](C)CCC[C@H](C)CCCC(C)C)O2` [α-tocopherol], for which the “relative affinities for α-TTP” value in data set [3] was 100%.
Turning to `Cc1cc(O)c(C)c2c1O[C@](C)(CCC[C@H](C)CCC[C@H](C)CCCC(C)C)CC2` [β-tocopherol], the “relative affinities for α-TTP” value in data set [3] is recorded as 38%.
Turning to `Cc1c(O)cc2c(c1C)O[C@](C)(CCC[C@H](C)CCC[C@H](C)CCCC(C)C)CC2` [γ-tocopherol], the “relative affinities for α-TTP” value in data set [3] was 9%.
`Cc1cc(O)cc2c1O[C@](C)(CCC[C@H](C)CCC[C@H](C)CCCC(C)C)CC2` [δ-tocopherol]: the “relative affinities for α-TTP” value in data set [3] is 2%.
